This note sets out measurements from PubChem BioAssay (NCI).

What all share (assay): DTP human tumour cell line panel, 48 h
Assay [1] concerns ACHN renal.
Assay [2] deals with BT-549 breast.
Assay [3] concerns HCC-2998 colon.
In assay [4] the test system is MDA-N.
Assay [5] concerns SF-268 CNS.
Assay [6] has as its system SK-MEL-28 melanoma.
Assay [7] deals with SW-620 colon.
In assay [8] the test system is UACC-62 melanoma.
In assay [9] the test system is HCT-116 colon.

Each structure is given as a SMILES string.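 Compound exposure: 48 hours, 5 concentrations, 96-well plates. TGI denotes the concentration required for complete inhibition of growth.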

In the case of `Nc1ccc(-c2nc3ccc(F)cc3s2)cc1Cl`, the TGI in assay [1], in [2], in [3], in [4], in assay [5] and in assay [6] was more than 100 µM throughout. Besides, the total growth inhibition concentration (TGI) in assay [7] and in assay [8] was more than 100 µM each time.

`N#Cc1c(=O)c2ccccc2n2ccccc12`: the TGI in assay [1], in assay [3], in assay [9], in assay [4], in assay [5] and in assay [6] was more than 100 µM each time. The TGI in [7] and in assay [8] was more than 100 µM throughout.

Regarding `Cc1cccc2oc3c(c(=O)c12)CC(O)C(C)(C)O3` (centres undefined), the total growth inhibition concentration (TGI) in assay [1], in [3], in assay [9], in assay [4], in assay [5] and in [6] was more than 100 µM each time. In addition, the TGI in assay [7] and in [8] was more than 100 µM each time.

As for `O=C(/C=C1\Sc2ccccc2N=C1CC(=O)c1ccccc1)c1ccccc1`, the TGI (in general, the concentration giving total growth inhibition) in [1] was 72.5 µM; in [2] it was 37.9 µM; in [3] it was 26.2 µM; in assay [9] it was 19.2 µM; in assay [4], more than 100 µM; in assay [5], 45.8 µM. Besides, the figures for the TGI in assay [6] and in assay [7] were 57.2 µM and 22.5 µM, respectively.

For the molecule `COc1cc(/C=N/N=C(\N)NO)cc(OC)c1OC`, the concentration for total growth inhibition (TGI) in [1] was 72 µM; in [3], more than 100 µM; in assay [9] it was more than 100 µM; in [5], more than 100 µM; in assay [6] it was more than 100 µM; in assay [7] it was more than 100 µM. The molecule also yielded a concentration for total growth inhibition (TGI) in assay [8] of 50.5 µM.

On to `CC1(C)OCC(C2OC3OC(C)(C)OC3C2c2ccccc2)O1` (centres undefined), for which the concentration for total growth inhibition (TGI) in assay [1], in assay [3], in assay [9], in assay [4], in [5] and in [6] was more than 100 µM in each case. For the same molecule, the TGI is more than 100 µM in assay [7] and 87.1 µM in assay [8].

Turning to `Nc1nccc(NCC2(CO)CC(OCc3ccccc3)C2)n1` (centres undefined), the concentration for total growth inhibition (TGI) in [1], in [2], in assay [3], in [9], in assay [4] and in assay [6] was more than 100 µM in each case. For the same molecule, the TGI in assay [7] and in assay [8] was more than 100 µM each time.

For the molecule `CCCCc1ccc(-n2sc3ncc(-c4ccccc4)cc3c2=O)cc1`, the TGI in assay [1], in [2], in assay [3], in assay [9], in [4] and in assay [6] was more than 100 µM each time. The TGI in assay [7] and in assay [8] was more than 100 µM in each case.

With `Nc1ccccc1C#CC(=O)c1cccc(C(F)(F)F)c1`, the TGI was more than 100 µM in assay [9]; 10.6 µM in assay [4]; 5.88 µM in assay [5]; 5 µM in assay [7]; 3.85 µM in assay [8].

For the molecule `COC1(C2c3ccccc3CCN2C(=O)OC(C)(C)C)C(=O)C(c2ccccc2)=C1N(C)C` (centres undefined), the TGI is more than 100 µM in assay [1]; 75 µM in [2]; 96.9 µM in [9]; 64 µM in assay [4]; more than 100 µM in assay [5]; more than 100 µM in assay [6]. For the same molecule, the TGI in [7] and in assay [8] was more than 100 µM each time.

As to `N#CCCN(CCC#N)c1ccc(/C=C2\N=C(c3ccccc3)N(c3ccc(C(=O)O)cc3)C2=O)cc1`, the total growth inhibition concentration (TGI) in assay [1] was more than 100 µM; in assay [2] it was 71.2 µM; in assay [9] it was more than 100 µM; in assay [4], more than 100 µM; in [5], 61.6 µM; in [6], more than 100 µM. The results for the TGI in [7] and in assay [8] were 48.3 µM and 67.5 µM, respectively.

As for `O=c1[nH]nc(-c2ccccc2)n1/N=C/c1cccc([N+](=O)[O-])c1`, the TGI in assay [1], in assay [2], in [3], in assay [9], in assay [5] and in assay [6] was more than 100 µM in each case. The TGI in assay [7] and in [8] was more than 100 µM in each case.

For `CCOC(=O)c1sc2c(c1OC(=O)c1cc(OC)c(OC)c(OC)c1)c(=O)n(-c1ccccc1)c(=S)n2-c1ccccc1`, the TGI in assay [1], in [3], in [9], in assay [4], in [5] and in assay [6] was more than 100 µM in each case. Further, the TGI in assay [7] and in [8] was more than 100 µM in each case.

`Cn1c(=Nc2ccc(Cl)cc2)sc2ccccc21`: the concentration for total growth inhibition (TGI) is more than 100 µM in [1]; 68.3 µM in [3]; more than 100 µM in assay [9]; more than 100 µM in assay [5]; more than 100 µM in assay [6]; more than 100 µM in assay [7]. Moreover, the TGI in assay [8] was more than 100 µM.

On to `COC(=O)CCC1(CCC(=O)OC)CCCCCCC(CCC(=O)OC)(CCC(=O)OC)C(=O)C1=O`, for which the TGI in assay [1], in [3], in assay [9], in assay [4], in [5] and in assay [6] was more than 100 µM each time. The molecule further registered a TGI in assay [8] of more than 100 µM.

On to `c1ccc2cc3c(NC4=NCCO4)cccc3cc2c1`, for which the TGI in [1] is more than 100 µM; in assay [9], more than 100 µM; in assay [4] it was 3.57 µM; in assay [5] it was more than 100 µM; in assay [6] it was more than 100 µM; in [7], more than 100 µM. In [8], this molecule had a TGI of more than 100 µM.

Consider `COc1cc(C(=O)Oc2c(C(C)=O)sc3c2c(=O)n(-c2ccccc2)c(=S)n3-c2ccccc2)cc(OC)c1OC`, for which the TGI came out at 66 µM in assay [1]; 55.6 µM in assay [3]; 36.2 µM in [9]; 57 µM in assay [4]; 77.4 µM in assay [5]; 49.5 µM in [6]. Further, the total growth inhibition concentration (TGI) worked out at 68.4 µM in [7] and 47.6 µM in assay [8].
